Data reported in patent US20240246959A1, “BENZIMIDAZOLE DERIVATIVE AND PREPARATION METHOD THEREFOR AND MEDICAL USE THEREOF” (Shenzhen Salubris Pharmaceuticals Co., Ltd., priority 2020, published 2024).
Values belong to the compound of their own block, whether it stands above or below them.

Key:
[1] = target: T1, human GLP-1 R (Homo sapiens, UniProt P43220); test: cAMP signal activation in human GLP1R cells (hGLP1R-U2OS, HTRF); type: cell-based
T1 construct: expressed in transfected cells
Description: A cell line stably expressing human GLP1 R (hGLP1R-U2OS) was used in this experiment. The cells were cultured in a growth medium (complete medium, DMEM+10% FBS+500 μg/mL G418 (Promega)) in an incubator at 37° C. and has 5% CO2 saturated humidity.
hGLP1R-U2OS was inoculated into 384-well plate with 1.0×10^4 cells/well (5 μL) (cell working solution: DMEM+0.1% BSA+1 mM IBMX (available from Bide Pharmatech Ltd.)), and was placed in an incubator at 37° C. and held for 30 min. The compounds to be tested were diluted stage-by-stage with Stimulation Buffer 1 (1×) in the kit, and the diluted compounds were added to the culture plate with 5 μL/well. They were incubated in an incubator at 37° C. for 30 min. Then, 5 μL/well of cAMP-d2 prepared with Lysis & Detection buffer and 5 μL/well of Anti CAMP-Cryptate working solution were added successively, and they were incubated at room temperature for 60 min before detection.
The ratio of signal emitted by donor to […] in each well was calculated as follows: HTRF rate=signal at 665 nm/signal at 620 nm×104, and then the HTRF rate was converted into a reaction rate (%). The concentration-response curve of each Example compound was created by a 4-parameter equation as Y=Bottom+(Top−Bottom)/(1+10^((Log IC50−X)*HillSlope)), and the half maximal (50%) effective concentration (EC50) was calculated.

[2] = Pharmacokinetic study on rat; type: in vivo, SD rats; conditions: for F: 5 mg/kg p.o vs 1 mg/kg i.v; for AUC(0-t) / Cmax / clearance / half-life: male, Sprague-Dawley (SD), plasma
Text: • SD rats: male, 180-250 g, purchased from Beijing Vital River Laboratory Animal Technology Co., Ltd. • Reagents: DMSO (dimethyl sulfoxide), PEG-400 (polyethylene glycol 400), physiological saline, heparin, acetonitrile, formic acid, and propranolol (internal standard), all of which are commercially available. • Instruments: Thermo Fisher Scientific LC-MS (U300 UPLC, TSQ QUANTUMN ULTRA triple quadrupole mass spectrometer).
A compound was weighed and dissolved in a DMSO-PEG-400-physiological saline (5:60:35, v/v/v) system. After the rats were administered with the compound intravenously or by gavage, 200 μL of venous blood samples were collected at 15 min, 30 min, 1 h, 2 h, 5 h, 7 h, and 24 h (for i.v. group an additional collection was performed at 5 min) in heparinized EP tubes respectively, which were centrifuged at 12,000 rpm for 2 min, and the plasma was frozen at −80° C. for further testing. A certain amount of the test substance was precisely weighed and dissolved in DMSO to obtain a stock solution with a concentration of 2 mg/mL. An appropriate amount of the stock solution of the compound was accurately pipetted and diluted with acetonitrile to prepare a standard series solution. 20 μL of each of the above standard series solution was accurately pipetted, added with 180 μL of blank plasma, and vortexed mixed to prepare plasma samples corresponding to plasma concentrations of 0.3, 1, 3, 10, 30, 100, 300, 1000, 3000 ng/mL. Two-sample analysis was performed for each concentration to establish a standard curve. 30 μL of plasma (for samples that are obtained at 5 min, 15 min, 30 min, and 1 h after intravenous administration, the plasma were diluted 10 times) was taken, added with 200 μL of a solution of internal standard propranolol in acetonitrile (50 ng/ml), and vortexed mixed. The mixture was then added with 100 μL of pure water, and vortexed and mixed again. It was centrifuged at 4000 rpm for 5 min, and the supernatant was collected for LC-MS analysis. LC-MS detection conditions were as follows. • Chromatographic column: Thermo Scientific HYPERSIL GOLD C-18 UPLC column, 100*2.1 mm, 1.7 μm. • Mobile phase: water (with 0.1% formic acid)-acetonitrile; gradient elution was performed according to the table below.
After blood drug concentrations was detected by LC-MS, WinNonlin 6.1 software was used to calculate pharmacokinetic parameters based on non-compartmental model.

T1 sequence (P43220 24-463): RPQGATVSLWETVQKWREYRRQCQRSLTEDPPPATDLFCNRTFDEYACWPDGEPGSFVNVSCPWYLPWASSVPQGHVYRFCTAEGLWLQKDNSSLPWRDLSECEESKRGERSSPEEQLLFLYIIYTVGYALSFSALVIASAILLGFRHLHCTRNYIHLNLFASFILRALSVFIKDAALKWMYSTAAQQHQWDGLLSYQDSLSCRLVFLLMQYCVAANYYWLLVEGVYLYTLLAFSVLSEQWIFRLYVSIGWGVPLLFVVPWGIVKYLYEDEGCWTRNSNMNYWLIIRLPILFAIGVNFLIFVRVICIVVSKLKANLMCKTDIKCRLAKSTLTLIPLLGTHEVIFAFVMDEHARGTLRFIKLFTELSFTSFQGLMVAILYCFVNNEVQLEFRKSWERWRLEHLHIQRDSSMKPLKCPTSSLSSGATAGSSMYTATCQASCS

F [2]: 76.6% | AUC(0-t) ([2]; iv, 1 mg/kg, i.v): 1130 ng·h/mL | Cmax ([2]; iv, 1 mg/kg, i.v): 2050 ng/mL | clearance ([2]; iv, 1 mg/kg, i.v): 14.7 mL/min/kg | half-life ([2]; iv, 1 mg/kg, i.v): 0.95 h | AUC(0-t) ([2]; po, 5 mg/kg, p.o): 4330 ng·h/mL | Cmax ([2]; po, 5 mg/kg, p.o): 1160 ng/mL | half-life ([2]; po, 5 mg/kg, p.o): 2.77 h | EC50 [1]: 2 nM
SMILES: C[C@@H](c1nc2ccc(C(=O)O)nc2n1C[C@@H]1CCO1)N1CCN(c2cccc(OCc3ccc(Cl)cc3F)n2)CC1 [Example 52A, 2-((S)-1-(4-(6-((4-chloro-2-fluorobenzyl)oxy)pyridin-2-yl)piperazin-1-yl)ethyl)-3-(((S)-oxetan-2-yl)methyl)-3H-imidazo[4,5-b]pyridin-5-carboxylic acid]

F [2]: 49.0% | AUC(0-t) ([2]; iv, 1 mg/kg, i.v): 2430 ng·h/mL | Cmax ([2]; iv, 1 mg/kg, i.v): 2310 ng/mL | clearance ([2]; iv, 1 mg/kg, i.v): 6.88 mL/min/kg | half-life ([2]; iv, 1 mg/kg, i.v): 2.89 h | AUC(0-t) ([2]; po, 5 mg/kg, p.o): 5950 ng·h/mL | Cmax ([2]; po, 5 mg/kg, p.o): 747 ng/mL | half-life ([2]; po, 5 mg/kg, p.o): 3.4 h | EC50 [1]: 1.71 nM
SMILES: C[C@@H](c1nc2ccc(C(=O)O)cc2n1C[C@@H]1CCO1)N1CCC(c2cccc(OCc3ccc(Cl)cc3F)n2)CC1 [Example 1A, 2-((S)-1-(4-(6-((4-chloro-2-fluorobenzyl)oxy)pyridin-2-yl)piperidin-1-yl)ethyl)-1-(((S)-oxetan-2-yl)methyl)-1H-benzo[d]imidazol-6-carboxylic acid]

EC50 [1]: 24.6 nM
SMILES: C[C@@H](c1nc2ccc(C(=O)O)cc2n1C[C@@H]1CCO1)N1CCN(c2cc(C#N)cc(OCc3ccc(C#N)cc3F)n2)CC1 [Example 45, 2-((S)-1-(4-(4-cyano-6-((4-cyano-2-fluorobenzyl)oxo)pyridin-2-yl)piperazin-1-yl)ethyl)-1-(((S)-oxetan-2-yl)methyl)-1H-benzo[d]imidazol-6-carboxylic acid]

EC50 [1]: 12 nM
SMILES: C[C@@H](c1nc2ccc(C(=O)O)cc2n1C[C@@H]1CCO1)N1CCN(c2ncc(F)c(OCc3ccc(C#N)cc3F)n2)CC1 [Example 42, 2-((S)-1-(4-(4-((4-cyano-2-fluorobenzyl)oxy)-5-fluoropyrimidin-2-yl)piperazin-1-yl)ethyl)-1-(((S)-oxetan-2-yl)methyl)-1H-benzo[d]imidazol-6-carboxylic acid]

EC50 [1]: 18.7 nM
SMILES: C[C@@H](c1nc2ccc(C(=O)O)cc2n1C[C@@H]1CCO1)N1CCC(c2cccc(OCc3ccc(Br)cc3F)n2)CC1 [Example 13, 2-((S)-1-(4-(6-((4-bromo-2-fluorobenzyl)oxy)pyridin-2-yl)piperidin-1-yl)ethyl)-1-(((S)-oxetan-2-yl)methyl)-1H-benzo[d]imidazol-6-carboxylic acid]

F [2]: 57.3% | AUC(0-t) ([2]; iv, 1 mg/kg, i.v): 2260 ng·h/mL | Cmax ([2]; iv, 1 mg/kg, i.v): 4360 ng/mL | clearance ([2]; iv, 1 mg/kg, i.v): 7.37 mL/min/kg | half-life ([2]; iv, 1 mg/kg, i.v): 0.69 h | AUC(0-t) ([2]; po, 5 mg/kg, p.o): 6470 ng·h/mL | Cmax ([2]; po, 5 mg/kg, p.o): 1410 ng/mL | half-life ([2]; po, 5 mg/kg, p.o): 2.9 h
SMILES: C[C@@H](c1nc2ccc(C(=O)O)cc2n1C[C@@H]1CCO1)N1CCN(c2cc(C(F)(F)F)cc(OCc3ccc(C#N)cc3F)n2)CC1 [Example 44, 2-((S)-1-(4-(6-((4-cyano-2-fluorobenzyl)oxy)-4-(trifluoromethyl)pyridin-2-yl)piperazin-1-yl)ethyl)-1-(((S)-oxetan-2-yl)methyl)-1H-benzo[d]imidazol-6-carboxylic acid]

EC50 [1]: 15.5 nM
SMILES: C[C@@H](c1nc2ccc(C(=O)O)cc2n1C[C@@H]1CCO1)N1CCN(c2cccc(OCc3ccc(Cl)cc3F)n2)CC1 [Example 39A]

The remaining lines, values behind:

SMILES: C[C@@H](c1nc2ccc(C(=O)O)nc2n1C[C@@H]1CCO1)N1CCC(c2cccc(OCc3ccc4cnn(CC(F)(F)F)c4c3)n2)CC1 [Example 17, 3-(((S)-oxetan-2-yl)methyl)-2-((S)-1-(4-(6-((1-(2,2,2-trifluoroethyl)-1H-indazol-6-yl)methoxy)pyridin-2-yl)piperidin-1-yl)ethyl)-3H-imidazo[4,5-b]pyridin-5-carboxylic acid]
EC50 [1]: 2.92 nM

SMILES: C[C@@H](c1nc2ccc(C(=O)O)nc2n1C[C@@H]1CCO1)N1CCC(c2cccc(OCc3ccnc4cc(F)ccc34)n2)CC1 [Example 18, 2-((S)-1-(4-(6-((7-fluoroquinolin-4-yl)methoxy)pyridin-2-yl)piperidin-1-yl)ethyl)-3-(((S)-oxetan-2-yl)methyl)-3H-imidazo[4,5-b]pyridine-5-carboxylic acid]
EC50 [1]: 2.66 nM

SMILES: C[C@@H](c1nc2ccc(C(=O)O)cc2n1C[C@@H]1CCO1)N1CCC(c2cccc(OCc3ccc(Cl)cc3F)n2)C(O)C1 (stereo partly drawn) [Example 31, 2-((1S)-1-((3,4-trans)-4-(6-((4-chloro-2-fluorobenzyl)oxy)pyridin-2-yl)-3-hydroxypiperidin-1-yl)ethyl)-1-(((S)-oxetan-2-yl)methyl)-1H-benzo[d]imidazol-6-carboxylic acid]
EC50 [1]: 14.4 nM

SMILES: C[C@@H](c1nc2ccc(C(=O)O)nc2n1C[C@@H]1CCO1)N1CCC(c2cccc(OCc3cccc4cc(F)cnc34)n2)CC1 [Example 19, 2-((S)-1-(4-(6-((3-fluoroquinolin-8-yl)methoxy)pyridin-2-yl)piperidin-1-yl)ethyl)-3-(((S)-oxetan-2-yl)methyl)-3H-imidazo[4,5-b]pyridin-5-carboxylic acid]
EC50 [1]: 3.94 nM

SMILES: C[C@@H](c1nc2ccc(C(=O)O)nc2n1C[C@@H]1CCO1)N1CCC(c2cccc(OCc3ccc4cnn(CC(F)F)c4c3)n2)CC1 [Example 11, 2-((S)-1-(4-(6-((1-(2,2-difluoroethyl)-1H-indazol-6-yl)methoxy)pyridin-2-yl)piperidin-1-yl)ethyl)-3-(((S)-oxetan-2-yl)methyl)-3H-imidazo[4,5-b]pyridin-5-carboxylic acid]
EC50 [1]: 3.45 nM

SMILES: C[C@@H](c1nc2ccc(C(=O)O)nc2n1C[C@@H]1CCO1)N1CCC(c2cccc(OCc3ccc(Cl)cc3F)n2)CC1 [Example 12, 2-((S)-1-(4-(6-((4-chloro-2-fluorobenzyl)oxy)pyridin-2-yl)piperidin-1-yl)ethyl)-3-(((S)-oxetan-2-yl)methyl)-3H-imidazolo[4,5-b]pyridin-5-carboxylic acid]
F [2]: 168.2% | AUC(0-t) ([2]; iv, 1 mg/kg, i.v): 1700 ng·h/mL | Cmax ([2]; iv, 1 mg/kg, i.v): 2250 ng/mL | clearance ([2]; iv, 1 mg/kg, i.v): 9.79 mL/min/kg | half-life ([2]; iv, 1 mg/kg, i.v): 0.87 h | AUC(0-t) ([2]; po, 5 mg/kg, p.o): 14300 ng·h/mL | Cmax ([2]; po, 5 mg/kg, p.o): 3780 ng/mL | half-life ([2]; po, 5 mg/kg, p.o): 2.69 h | EC50 [1]: 3.89 nM

SMILES: C[C@@H](c1nc2ccc(C(=O)O)cc2n1C[C@@H]1CCO1)N1CCC(c2cccc(OCc3ccc4cnn(CC(F)F)c4c3)n2)CC1 [Example 8, 2-((S)-1-(4-(6-((1-(2,2-difluoroethyl)-1H-indazol-6-yl)methoxy)pyridin-2-yl)piperidin-1-yl)ethyl)-1-(((S)-oxetan-2-yl)methyl)-1H-benzo[d]imidazol-6-carboxylic acid]
EC50 [1]: 10.3 nM

SMILES: C[C@@H](c1nc2ccc(C(=O)O)cc2n1C[C@@H]1CCO1)N1CCC(c2cccc(OCc3ccc4cnn(CC(F)(F)F)c4c3)n2)CC1 [Example 9, 1-(((S)-oxetan-2-yl)methyl)-2-((S)-1-(4-(6-((1-(2,2,2-trifluoroethyl)-1H-indazol-6-yl)methoxy)pyridin-2-yl)piperidin-1-yl)ethyl)-1H-benzo[d]imidazol-6-carboxylic acid]
EC50 [1]: 3.48 nM

SMILES: C[C@@H](c1nc2ccc(C(=O)O)nc2n1C[C@@H]1CCO1)N1CCC(c2cccc(OCc3ccc(C#N)cc3F)n2)CC1 [Example 15, 2-((S)-1-(4-(6-((4-cyano-2-fluorobenzyl)oxy)pyridin-2-yl)piperidin-1-yl)ethyl)-3-(((S)-oxetan-2-yl)methyl)-3H-imidazo[4,5-b]pyridin-5-carboxylic acid]
EC50 [1]: 2.57 nM
